The term IC50 denotes the concentration that inhibits the measured activity by half.

The target of this assay is Histone deacetylase 1 (Homo sapiens, UniProt Q13547). Description: Fluorescent Activity Assay: In vitro HDAC assays were performed using a HDAC fluorescent activity assay kit (Biomol, UK) according to the manufacturer's instructions. Compounds were reduced prior to analysis; 1 mM compound was reduced with 30 mM DTT in DMSO overnight at room temperature, protected from light. Reactions were then set up in a 96-well plate. For each reaction 10 ul compound (5x required concentration in assay buffer) was mixed with […] diluted HeIa Nuclear Extract (30-fold in assay buffer). Serial dilutions were set up for each compound. Reactions containing HeIa extract only and assay buffer only were also set up. 25 ul diluted Fluor de Lys substrate (100-fold in assay buffer) was added to each reaction, which were then incubated at 37C for 1 hour. The reaction was stopped by addition of 50 ul Fluor de Lys Developer (20-fold dilution in assay buffer, plus TSA diluted 100-fold). The reactions were then incubated at room temperature for 10 minutes before fluorescence was measured.
Chain of Histone deacetylase 1 (Q13547 whole entry): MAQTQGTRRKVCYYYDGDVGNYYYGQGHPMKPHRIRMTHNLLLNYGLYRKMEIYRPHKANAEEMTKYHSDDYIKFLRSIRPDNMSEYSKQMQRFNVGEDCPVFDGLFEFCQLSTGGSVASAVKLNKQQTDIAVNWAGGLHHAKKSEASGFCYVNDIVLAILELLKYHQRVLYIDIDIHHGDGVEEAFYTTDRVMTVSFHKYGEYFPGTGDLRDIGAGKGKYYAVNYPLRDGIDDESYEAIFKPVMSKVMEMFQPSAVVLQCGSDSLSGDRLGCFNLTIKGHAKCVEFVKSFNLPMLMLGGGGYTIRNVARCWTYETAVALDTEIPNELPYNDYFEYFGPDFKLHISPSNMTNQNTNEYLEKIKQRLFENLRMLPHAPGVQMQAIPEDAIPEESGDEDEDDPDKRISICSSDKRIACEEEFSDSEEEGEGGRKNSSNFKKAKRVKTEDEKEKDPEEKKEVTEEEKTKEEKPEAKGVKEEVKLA

With `CC(=O)SCC/C=C/[C@@H]1CC(=O)N[C@H](C(C)C)C(=O)N[C@H](C)C(=O)N[C@H](C(C)C)[C@@H](O)CC(=O)O1`, the IC50 amounted to 21.6 nM.

Values taken from ChEMBL document CHEMBL3639235, “Depsipeptides and their therapeutic use” (2014).
